Common to all, as to type: biochemical
Experiment [1] has as its target T1, Recombinant human AKR1C3 (17β-HSD5) protein (Homo sapiens, UniProt P42330).
T1 construct: made in house; host or cells: E. coli
T1 sequence (P42330 1-323): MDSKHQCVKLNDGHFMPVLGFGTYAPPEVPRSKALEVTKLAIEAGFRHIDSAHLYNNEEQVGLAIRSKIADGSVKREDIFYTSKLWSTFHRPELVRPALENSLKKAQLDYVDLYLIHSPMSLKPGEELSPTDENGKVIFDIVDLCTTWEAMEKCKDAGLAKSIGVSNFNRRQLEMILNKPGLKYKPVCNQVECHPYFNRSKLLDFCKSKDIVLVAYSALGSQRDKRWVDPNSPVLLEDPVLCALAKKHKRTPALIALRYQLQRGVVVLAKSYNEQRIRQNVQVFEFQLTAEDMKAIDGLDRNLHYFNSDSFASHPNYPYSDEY
The experiment in a line: Inhibition of AKR1C3 (17β-hydroxysteroid dehydrogenase type 5) enzyme, fluorescence assay. The note with it: inhibitor at 500 nM. An outline of the steps:
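Percent inhibition at 500 nM compound, derived from substrate conversion; product alcohol measured by fluorescence (ex 420, em 510 nm) against a 1 μM–10 nM standard curve. Reaction: 27 nM recombinant AKR1C3, 1 μM ketone substrate, 1 mM NADPH, phosphate/EDTA buffer pH 7.4, 1% DMSO, RT for 60–120 min.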

The target in experiment [2] is T2, Recombinant human aldo-keto reductase family 1 member C2 (AKR1C2) protein (Homo sapiens, UniProt P52895).
T2 construct: made in house; host or cells: Sf-9 insect cells (baculovirus)
T2 sequence (P52895 1-323): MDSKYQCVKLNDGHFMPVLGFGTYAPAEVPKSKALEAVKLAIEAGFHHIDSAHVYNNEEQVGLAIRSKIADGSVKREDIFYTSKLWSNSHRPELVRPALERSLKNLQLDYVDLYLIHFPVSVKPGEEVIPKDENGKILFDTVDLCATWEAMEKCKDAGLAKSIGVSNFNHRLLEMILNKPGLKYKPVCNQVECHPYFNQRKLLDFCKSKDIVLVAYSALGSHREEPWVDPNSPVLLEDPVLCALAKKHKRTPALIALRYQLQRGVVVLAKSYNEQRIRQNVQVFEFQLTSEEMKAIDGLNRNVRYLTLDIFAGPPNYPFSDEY
In words: Inhibition of the aldo-keto reductase family 1 member C2, 3H-dihydrotestosterone conversion. The note with it: inhibitor at 10 μM. An outline of the steps: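 Single-point screen at 10 μM inhibitor, 1% DMSO: [3H]DHT (6.25 nM) reduction to 3α-diol by baculovirus-made AKR1C2 (13.6 nM), pH 7.4 phosphate buffer, 1 mM NADPH, 37 °C for 45 min. Radio-UPLC quantified product versus substrate to give percent inhibition.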

For experiment [3], the target named is T3, 17β-Hydroxysteroid Dehydrogenase Type 2 Enzyme (17β-HSD2) (Homo sapiens, UniProt P37059).
T3 construct: made in house; host or cells: Sf-9 insect cells (baculovirus)
T3 sequence (P37059 1-387): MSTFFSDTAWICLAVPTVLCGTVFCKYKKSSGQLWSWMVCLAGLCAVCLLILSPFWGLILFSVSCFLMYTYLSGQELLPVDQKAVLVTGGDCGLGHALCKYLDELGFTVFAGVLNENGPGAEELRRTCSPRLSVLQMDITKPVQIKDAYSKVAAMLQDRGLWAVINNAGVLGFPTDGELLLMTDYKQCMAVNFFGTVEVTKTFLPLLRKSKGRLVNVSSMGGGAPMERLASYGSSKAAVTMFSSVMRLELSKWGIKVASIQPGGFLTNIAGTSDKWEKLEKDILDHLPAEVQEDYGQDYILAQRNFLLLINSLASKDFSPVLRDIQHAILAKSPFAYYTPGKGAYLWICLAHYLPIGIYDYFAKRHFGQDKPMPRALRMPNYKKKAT
The experiment in a line: Inhibition of the 17β-hydroxysteroid dehydrogenase type 2 enzyme, 3H-testosterone conversion. The note with it: inhibitor at 10 μM. An outline of the steps: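 Single-point screen at 10 μM inhibitor, 1% DMSO: Sf-9-expressed human enzyme (105 nM), NAD 1 mM, ³H-labelled testosterone 56.25 nM, pH 8.5 phosphate/EDTA buffer, 30 min, room temperature. After TCA quench, substrate and product radioactivity quantified by UPLC with scintillation detection; inhibition percent from conversion.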

Among the data in patent US12637471B2, “Heterocyclic compounds, compositions, methods of preparation and uses thereof” (Organon R&D Finland Ltd, priority 2021, dated 2026) are inhibition values, retold here.

Regarding `N#CC(=C1CCN(C(=O)N2CCC(CCO)CC2)CC1)c1ccc(Cl)cc1` [Compound 131, 2-(4-chlorophenyl)-2-(1-(4-(2-hydroxyethyl)piperidine-1-carbonyl)piperidin-4-ylidene) acetonitrile], the inhibition (as a rule, the change of the read-out against control, counted positive when it falls) at 0.5 µM in experiment [1] was determined as 98%. Besides, the values for the inhibition at 10 µM in experiment [2] and in experiment [3] were 8% and 13%, respectively.

As for `N#CC(=C1CCN(C(=O)N2CCC(CCCO)CC2)CC1)c1ccc(Cl)cc1` [Compound 132, 2-(4-chlorophenyl)-2-(1-(4-(3-hydroxypropyl)piperidine-1-carbonyl)piperidin-4-ylidene)acetonitrile], the inhibition at 0.5 µM in experiment [1] stood at 95%. For the same compound, the figures for the inhibition at 10 µM in experiment [2] and in experiment [3] were 8% and 17%, respectively.

`CC(C)OC1CCN(C(=O)N2CCC(=C(C#N)c3ccc(Cl)cc3)CC2)CC1` [Compound 133, 2-(4-chlorophenyl)-2-(1-(4-isopropoxypiperidine-1-carbonyl)piperidin-4-ylidene)acetonitrile]: in experiment [1], the inhibition at 0.5 µM is 97%. Further, the inhibition at 10 µM was determined as 16% in experiment [2] and 23% in experiment [3].

Consider `CCCOC1CCN(C(=O)N2CCC(=C(C#N)c3ccc(Cl)cc3)CC2)CC1` [Compound 134, 2-(4-chlorophenyl)-2-(1-(4-propoxypiperidine-1-carbonyl)piperidin-4-ylidene)acetonitrile], for which, in experiment [1], the inhibition at 0.5 µM came out at 98%. In addition, the values for the inhibition at 10 µM in experiment [2] and in experiment [3] were 13% and 12%, respectively.

Consider `N#CC(=C1CCN(C(=O)N2CCC(C(F)(F)F)CC2)CC1)c1ccc(Cl)cn1` [Compound 135, 2-(5-chloropyridin-2-yl)-2-(1-(4-(trifluoromethyl)piperidine-1-carbonyl)piperidin-4-ylidene)acetonitrile], for which, in experiment [1], the inhibition at 0.5 µM stood at 92%. Also, the inhibition at 10 µM was determined as 3% in experiment [2] and 4% in experiment [3].

Take `Cn1ncc2cccc(C(C#N)=C3CCN(C(=O)N4CCc5nocc5C4)CC3)c21` [Compound 136, 2-(1-methyl-1H-indazol-7-yl)-2-(1-(4,5,6,7-tetrahydroisoxazolo[4,3-c]pyridine-5-carbonyl)piperidin-4-ylidene)acetonitrile]: in experiment [1], the inhibition at 0.5 µM was 99%. Besides, the results for the inhibition at 10 µM in experiment [2] and in experiment [3] were 6% and 26%, respectively.

Regarding `CCOC1CCN(C(=O)N2CCC(=C(C#N)c3ccc(F)cc3F)CC2)CC1` [Compound 137, 2-(2,4-difluorophenyl)-2-(1-(4-ethoxypiperidine-1-carbonyl)piperidin-4-ylidene)acetonitrile], the inhibition at 0.5 µM in experiment [1] came out at 97%. Further, the inhibition at 10 µM in experiment [2] came to 18%; in experiment [3], 6%.

With `N#CC(=C1CCN(C(=O)N2CCc3nocc3C2)CC1)c1cccc2[nH]ncc12` [Compound 138, 2-(1H-indazol-4-yl)-2-(1-(4,5,6,7-tetrahydroisoxazolo[4,3-c]pyridine-5-carbonyl)piperidin-4-ylidene)acetonitrile], the inhibition at 0.5 µM in experiment [1] is 98%. Also, the inhibition at 10 µM in experiment [2] is 31%; in experiment [3], 13%.

Regarding `CC(C)OC1CCN(C(=O)N2CCC(=C(C#N)c3cccc(Cl)c3)CC2)CC1` [Compound 139, 2-(3-chlorophenyl)-2-(1-(4-isopropoxypiperidine-1-carbonyl)piperidin-4-ylidene)acetonitrile], the inhibition at 0.5 µM in experiment [1] amounted to 93%. For the same compound, the values for the inhibition at 10 µM in experiment [2] and in experiment [3] were 8% and 27%, respectively.

Turning to `N#CC(=C1CCN(C(=O)N2CCC(CCO)CC2)CC1)c1cccc(Cl)c1` [Compound 140, 2-(3-chlorophenyl)-2-(1-(4-(2-hydroxyethyl)piperidine-1-carbonyl)piperidin-4-ylidene)acetonitrile], the inhibition at 0.5 µM in experiment [1] was found to be 96%. The values for the inhibition at 10 µM in experiment [2] and in experiment [3] were 21% and 23%, respectively.

On to `N#CC(=C1CCN(C(=O)N2CCc3nocc3C2)CC1)c1ccc(Cl)cc1` [Compound 141, 2-(4-chlorophenyl)-2-(1-(4,5,6,7-tetrahydroisoxazolo[4,3-c]pyridine-5-carbonyl)piperidin-4-ylidene)acetonitrile], for which, in experiment [1], the inhibition at 0.5 µM is 98%. Further, the inhibition at 10 µM in experiment [2] is 33%; in experiment [3], 7%.

For the compound `N#CC(=C1CCN(C(=O)N2CCC(CCCO)CC2)CC1)c1ccc(F)cc1` [Compound 142, 2-(4-fluorophenyl)-2-(1-(4-(3-hydroxypropyl)piperidine-1-carbonyl)piperidin-4-ylidene)acetonitrile], in experiment [1], the inhibition at 0.5 µM came to 91%. The values for the inhibition at 10 µM in experiment [2] and in experiment [3] were 3% and 4%, respectively.

With `CC(=O)N1CCN(C(=O)N2CCC(=C(C#N)c3ccc(F)cc3)CC2)CC1` [Compound 143, 2-(1-(4-acetylpiperazine-1-carbonyl)piperidin-4-ylidene)-2-(4-fluorophenyl)acetonitrile], the inhibition at 0.5 µM in experiment [1] was determined as 93%. Moreover, the inhibition at 10 µM in experiment [2] is 9%; in experiment [3], 7%.

In the case of `COC1CCN(C(=O)N2CCC(=C(C#N)c3cccc4[nH]ncc34)CC2)CC1` [Compound 144, 2-(1H-indazol-4-yl)-2-(1-(4-methoxypiperidine-1-carbonyl)piperidin-4-ylidene)acetonitrile], the inhibition at 0.5 µM in experiment [1] stood at 100%. For the same compound, the inhibition at 10 µM in experiment [2] is 5%; in experiment [3] it was 16%.

On to `N#CC(=C1CCN(C(=O)N2CCC(C(F)(F)F)CC2)CC1)c1cccc2[nH]ncc12` [Compound 145, 2-(1H-indazol-4-yl)-2-(1-(4-(trifluoromethyl)piperidine-1-carbonyl)piperidin-4-ylidene) acetonitrile], for which the inhibition at 0.5 µM in experiment [1] stood at 97%. Moreover, the inhibition at 10 µM in experiment [2] was found to be 1%; in experiment [3] it was 9%.

With `COC1CCN(C(=O)N2CCC(=C(C#N)c3ccc(C(F)(F)F)cc3)CC2)CC1` [Compound 146, 2-(1-(4-methoxypiperidine-1-carbonyl)piperidin-4-ylidene)-2-(4-(trifluoromethyl)phenyl)acetonitrile], the inhibition at 0.5 µM in experiment [1] worked out at 100%. The inhibition at 10 µM was found to be 2% in experiment [2] and 15% in experiment [3].

Regarding `N#CC(=C1CCN(C(=O)N2CCOCC2)CC1)c1ccc(C(F)(F)F)cc1` [Compound 147, 2-(1-(morpholine-4-carbonyl)piperidin-4-ylidene)-2-(4-(trifluoromethyl)phenyl)acetonitrile], the inhibition at 0.5 µM in experiment [1] was 99%. Besides, the results for the inhibition at 10 µM in experiment [2] and in experiment [3] were 5% and 4%, respectively.

In the case of `N#CC(=C1CCN(C(=O)N2CCC(S(N)(=O)=O)CC2)CC1)c1ccc(C(F)(F)F)cc1` [Compound 148, 1-(4-(cyano(4-(trifluoromethyl)phenyl)methylene)piperidine-1-carbonyl)piperidine-4-sulfonamide], the inhibition at 0.5 µM in experiment [1] turned out to be 90%. Further, the inhibition at 10 µM in experiment [2] came out at 6%; in experiment [3], 7%.

Regarding `N#CC(=C1CCN(C(=O)N2CCC(CCO)CC2)CC1)c1ccc(C(F)(F)F)cc1` [Compound 149, 2-(1-(4-(2-hydroxyethyl)piperidine-1-carbonyl)piperidin-4-ylidene)-2-(4-(trifluoromethyl)phenyl)acetonitrile], in experiment [1], the inhibition at 0.5 µM is 94%. In addition, the inhibition at 10 µM stood at 7% in experiment [2] and 9% in experiment [3].
